Key:
Format in all cases: in vivo
[1] = tested on: redroot pigweed (Amaranthus retroflexus, AMR); assay: Pre-emerge test, redroot pigweed; details: 250 g ai/ha, 14 days after application, rating scale 0-100 (0 no damage, 100 complete death)
Outline: (§1)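 Pre-emerge greenhouse screen: sow, wait 1 d, spray acetone solution (8–1000 g ai/ha, 187 l/ha), rate injury 0–100 at 14 DAT.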

[2] = tested on: green foxtail (Setaria viridis, SEV); assay: Pre-emerge test, green foxtail; details: 250 g ai/ha, 14 days after application, rating scale 0-100 (0 no damage, 100 complete death)
Outline: as §1

[3] = tested on: ivyleaf morningglory (Ipomoea hederacea, IPH); assay: Post-emerge test, ivyleaf morningglory; details: 250 g ai/ha, 14 days after application, rating scale 0-100 (0 no damage, 100 complete death)
Outline: (§2)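 Emerged seedlings, usually at 2-3 leaves after 8-21 days' growth in sandy loam, were treated with 8-1000 g ai/ha. Treatment was an acetone spray at 187 l/ha containing 0.25% v/v non-ionic surfactant. Assessment at 14 days used a 0 (no damage) to 100 (total death) scale.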

[4] = tested on: sicklepod (Cassia obtusifolia, CAO); assay: Post-emerge test, sicklepod; details: 250 g ai/ha, 14 days after application, rating scale 0-100 (0 no damage, 100 complete death)
Outline: as §2

[5] = tested on: soybean (Glycine max L., var. Pella 86, SOY); assay: Pre-emerge test, crop damage soybean
Outline: (§3)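 Seeds planted 1 day pre-application in sandy loam soil mix; acetone solutions sprayed at 8 to 1000 g ai/ha (187 l/ha, flat fan nozzle, track sprayer). 14 d later, visual damage scored on a 0–100 scale.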

[6] = tested on: upland rice (Oryza sp., var.Tebonnet, RICE); assay: Post-emerge test, crop damage upland rice
Outline: as §2

[7] = tested on: cocklebur (Xanthium strumariunt, XAS); assay: Post-emerge test, cocklebur; details: 250 g ai/ha, 14 days after application, rating scale 0-100 (0 no damage, 100 complete death)
Outline: as §2

[8] = tested on: common ragweed (Ambrosia artemisiifolia L., AML); assay: Post-emerge test, common ragweed; details: 250 g ai/ha, 14 days after application, rating scale 0-100 (0 no damage, 100 complete death)
Outline: as §2

[9] = tested on: cocklebur (Xanthium strumariunt, XAS); assay: Pre-emerge test, cocklebur; details: 250 g ai/ha, 14 days after application, rating scale 0-100 (0 no damage, 100 complete death)
Outline: as §1

[10] = tested on: barnyardgrass (Echinachloa crus-galli, ECC); assay: Post-emerge test, barnyardgrass; details: 250 g ai/ha, 14 days after application, rating scale 0-100 (0 no damage, 100 complete death)
Outline: as §2

[11] = tested on: field corn (Zea mays L., var. Dekalb 535, CORN); assay: Pre-emerge test, crop damage field corn
Outline: as §3

[12] = tested on: barnyardgrass (Echinachloa crus-galli, ECC); assay: Pre-emerge test, barnyardgrass; details: 250 g ai/ha, 14 days after application, rating scale 0-100 (0 no damage, 100 complete death)
Outline: as §1

[13] = tested on: johnsongrass (Sorghum halepense, SOH); assay: Post-emerge test, johnsongrass; details: 250 g ai/ha, 14 days after application, rating scale 0-100 (0 no damage, 100 complete death)
Outline: as §2

[14] = tested on: wheat (Triticum aestivum); assay: Post-emerge test, crop damage wheat
Outline: as §2

[15] = tested on: redroot pigweed (Amaranthus retroflexus, AMR); assay: Post-emerge test, redroot pigweed; details: 250 g ai/ha, 14 days after application, rating scale 0-100 (0 no damage, 100 complete death)
Outline: as §2

[16] = tested on: lambsquarters (Chenopodium album, CHA); assay: Pre-emerge test, lambsquarters; details: 250 g ai/ha, 14 days after application, rating scale 0-100 (0 no damage, 100 complete death)
Outline: as §1

[17] = tested on: soybean (Glycine max L., var. Pella 86, SOY); assay: Post-emerge test, crop damage soybean
Outline: as §2

[18] = tested on: common ragweed (Ambrosia artemisiifolia L., AML); assay: Pre-emerge test, common ragweed; details: 250 g ai/ha, 14 days after application, rating scale 0-100 (0 no damage, 100 complete death)
Outline: as §1

[19] = tested on: green foxtail (Setaria viridis, SEV); assay: Post-emerge test, green foxtail; details: 250 g ai/ha, 14 days after application, rating scale 0-100 (0 no damage, 100 complete death)
Outline: as §2

[20] = tested on: ivyleaf morningglory (Ipomoea hederacea, IPH); assay: Pre-emerge test, ivyleaf morningglory; details: 250 g ai/ha, 14 days after application, rating scale 0-100 (0 no damage, 100 complete death)
Outline: as §1

[21] = tested on: large crabgrass (Digitaria sanguinalis, DIS); assay: Pre-emerge test, large crabgrass; details: 250 g ai/ha, 14 days after application, rating scale 0-100 (0 no damage, 100 complete death)
Outline: as §1

[22] = tested on: large crabgrass (Digitaria sanguinalis, DIS); assay: Post-emerge test, large crabgrass; details: 250 g ai/ha, 14 days after application, rating scale 0-100 (0 no damage, 100 complete death)
Outline: as §2

[23] = tested on: upland rice (Oryza sp., var.Tebonnet, RICE); assay: Pre-emerge test, crop damage upland rice
Outline: as §3

[24] = tested on: johnsongrass (Sorghum halepense, SOH); assay: Pre-emerge test, johnsongrass; details: 250 g ai/ha, 14 days after application, rating scale 0-100 (0 no damage, 100 complete death)
Outline: as §1

[25] = tested on: velvetleaf (Abutilon theophrasti, ABT); assay: Pre-emerge test, velvetleaf; details: 250 g ai/ha, 14 days after application, rating scale 0-100 (0 no damage, 100 complete death)
Outline: as §1

[26] = tested on: wheat (Triticum aestivum); assay: Pre-emerge test, crop damage wheat
Outline: as §3

[27] = tested on: field corn (Zea mays L., var. Dekalb 535, CORN); assay: Post-emerge test, crop damage field corn
Outline: as §2

[28] = tested on: velvetleaf (Abutilon theophrasti, ABT); assay: Post-emerge test, velvetleaf; details: 250 g ai/ha, 14 days after application, rating scale 0-100 (0 no damage, 100 complete death)
Outline: as §2

[29] = tested on: lambsquarters (Chenopodium album, CHA); assay: Post-emerge test, lambsquarters; details: 250 g ai/ha, 14 days after application, rating scale 0-100 (0 no damage, 100 complete death)
Outline: as §2

[30] = tested on: sicklepod (Cassia obtusifolia, CAO); assay: Pre-emerge test, sicklepod; details: 250 g ai/ha, 14 days after application, rating scale 0-100 (0 no damage, 100 complete death)
Outline: as §1

[31] = pre-emerge, 250 g ai/ha, 14 days after application, rating scale 0-100 (0 no damage, 100 complete death)
[32] = post-emerge, 250 g ai/ha, 14 days after application, rating scale 0-100 (0 no damage, 100 complete death)
[33] = var. Pella 86, Glycine max (soybean), in vivo, 14 days
[34] = var. Tebonnet, Oryza sp. (upland rice), in vivo, 14 days
[35] = var. Dekalb 535, Zea mays (field corn), in vivo, 14 days
[36] = Triticum aestivum (wheat), in vivo, 14 days

Compound	Pre-emerge Herbicidal Activity AMR (phytotoxicity rating) [1]	Pre-emerge Herbicidal Activity SEV (phytotoxicity rating) [2]	Post-emerge Herbicidal Activity IPH (phytotoxicity rating) [3]	Post-emerge Herbicidal Activity CAO (phytotoxicity rating) [4]	Post-emerge Herbicidal Activity XAS (phytotoxicity rating) [7]	Post-emerge Herbicidal Activity AML (phytotoxicity rating) [8]	Pre-emerge Herbicidal Activity XAS (phytotoxicity rating) [9]	Post-emerge Herbicidal Activity ECC (phytotoxicity rating) [10]	Pre-emerge Herbicidal Activity ECC (phytotoxicity rating) [12]	Post-emerge Herbicidal Activity SOH (phytotoxicity rating) [13]	Post-emerge Herbicidal Activity AMR (phytotoxicity rating) [15]	Pre-emerge Herbicidal Activity CHA (phytotoxicity rating) [16]	Pre-emerge Herbicidal Activity AML (phytotoxicity rating) [18]	Post-emerge Herbicidal Activity SEV (phytotoxicity rating) [19]	Pre-emerge Herbicidal Activity IPH (phytotoxicity rating) [20]	Pre-emerge Herbicidal Activity DIS (phytotoxicity rating) [21]	Post-emerge Herbicidal Activity DIS (phytotoxicity rating) [22]	Pre-emerge Herbicidal Activity SOH (phytotoxicity rating) [24]	Pre-emerge Herbicidal Activity ABT (phytotoxicity rating) [25]	Post-emerge Herbicidal Activity ABT (phytotoxicity rating) [28]	other results
CCC1C(=O)Nc2c(-c3nn(C)c(OC(F)F)c3Cl)c(F)cc3c2N1C(=O)CO3 (stereo not drawn) [1-28]	100	100	100	100	100	100	100	99	100	80	100	100	98	100	100	100	15	100	100	100	Pre-emerge crop damage SOY (phytotoxicity rating) [5, 31]: 40; Post-emerge crop damage RICE (phytotoxicity rating) [6, 32]: 100; Pre-emerge crop damage CORN (phytotoxicity rating) [11, 31]: 85; Post-emerge crop damage WHEAT (phytotoxicity rating) [14, 32]: 50; Post-emerge crop damage SOY (phytotoxicity rating) [17, 32]: 100; Pre-emerge crop damage RICE (phytotoxicity rating) [23, 31]: 75; Pre-emerge crop damage WHEAT (phytotoxicity rating) [26, 31]: 65; Post-emerge crop damage CORN (phytotoxicity rating) [27, 32]: 25; Post-emerge Herbicidal Activity CHA (phytotoxicity rating) [29]: 100; Pre-emerge Herbicidal Activity CAO (phytotoxicity rating) [30]: 100
Cn1nc(-c2c(F)cc3c4c2NC(=O)C(c2ccccc2)N4C(=O)CO3)c(Cl)c1OC(F)F (stereo not drawn) [1-33]	100	99	98	60	70	70	75	65	55	65	99	100	100	95	70	100	25	70	100	100	Pre-emerge crop damage SOY (phytotoxicity rating) [5, 31]: 15; Post-emerge crop damage RICE (phytotoxicity rating) [6, 32]: 95; Pre-emerge crop damage CORN (phytotoxicity rating) [11, 31]: 0; Post-emerge crop damage WHEAT (phytotoxicity rating) [14, 32]: 65; Post-emerge crop damage SOY (phytotoxicity rating) [17, 32]: 60; Pre-emerge crop damage RICE (phytotoxicity rating) [23, 31]: 10; Pre-emerge crop damage WHEAT (phytotoxicity rating) [26, 31]: 10; Post-emerge crop damage CORN (phytotoxicity rating) [27, 32]: 25; Post-emerge Herbicidal Activity CHA (phytotoxicity rating) [29]: 99; Pre-emerge Herbicidal Activity CAO (phytotoxicity rating) [30]: 65
CC1Oc2cc(F)c(-c3nn(C)c(OC(F)F)c3Cl)c3c2N(CC(=O)N3)C1=O (stereo not drawn) [1-56]	100	100	100	100	100	100	100	100	100	85	100	100	100	100	100	100	100	100	100	100	Pre-emerge crop damage SOY (phytotoxicity rating) [5, 31]: 15; Post-emerge crop damage RICE (phytotoxicity rating) [6, 32]: 99; Pre-emerge crop damage CORN (phytotoxicity rating) [11, 31]: 50; Post-emerge crop damage WHEAT (phytotoxicity rating) [14, 32]: 30; Post-emerge crop damage SOY (phytotoxicity rating) [17, 32]: 100; Pre-emerge crop damage RICE (phytotoxicity rating) [23, 31]: 75; Pre-emerge crop damage WHEAT (phytotoxicity rating) [26, 31]: 55; Post-emerge crop damage CORN (phytotoxicity rating) [27, 32]: 20; Post-emerge Herbicidal Activity CHA (phytotoxicity rating) [29]: 100; Pre-emerge Herbicidal Activity CAO (phytotoxicity rating) [30]: 100
Cn1nc(-c2c(F)cc3c4c2NC(=O)C(C)(C)N4C(=O)CO3)c(Cl)c1C(F)(F)F [1-15, 8-[4-Chloro-1-methyl-5-(trifluoromethyl)-1H-pyrazol-3-yl]-5,5-dimethyl-9-fluoro-5H-pyrazino[1,2,3-de]-1,4-benzoxazine-3,6(2H, 7H)-dione]	100	100	100	99	100	98	100	99	100	55	100	100	100	99	100	100	50	100	100	100	Pre-emerge crop damage SOY (phytotoxicity rating) [5, 33]: 50; Post-emerge crop damage RICE (phytotoxicity rating) [6, 34]: 80; Pre-emerge crop damage CORN (phytotoxicity rating) [11, 35]: 60; Post-emerge crop damage WHEAT (phytotoxicity rating) [14, 36]: 50; Post-emerge crop damage SOY (phytotoxicity rating) [17, 33]: 100; Pre-emerge crop damage RICE (phytotoxicity rating) [23, 34]: 40; Pre-emerge crop damage WHEAT (phytotoxicity rating) [26, 36]: 90; Post-emerge crop damage CORN (phytotoxicity rating) [27, 35]: 35; Post-emerge Herbicidal Activity CHA (phytotoxicity rating) [29]: 100; Pre-emerge Herbicidal Activity CAO (phytotoxicity rating) [30]: 100
